The nature of series [1]: Stability/release in fetal bovine serum (FBS). The note with it: for Stability (% unmodified compound): FBS, 37 °C; for half-life: bovine, fetal bovine serum (absolute FBS), pH 7.4.
The subject of series [2] is U251 spheroids. The series is described as follows: Diameter of U251 spheroids in bioprinted scaffold. It counts as cell-based, human. The note with it: 10 µM, 72 h, FBS-free DMEM. The procedure:
(§1) A solution of 2% alginate and 8% gelatin (bio-ink) made up the hydrogel utilized for bioprinting. After 15 min of UV light exposure, the powders were dissolved in sterile DPBS in a magnetic stirrer set at 50 °C with laminar flow. After being made, bioink was put in sterile syringes and kept at 4 °C until it was needed. Bioink had been equilibrated at 37 °C prior to the bioprinting process. After that, 2.7 mL of bioink was added to 20 × 10^6 cells that had been resuspended in 300 µL of growth media. Lastly, a disposable cartridge containing a cell/hydrogel suspension was equilibrated in a temperature-controlled printhead for 30 min at 29 °C. The BIO-X bioprinter (Cellink, Gothenburg, Sweden) was used to print in a 12-well plate at a speed of 5 mm/s and a dispensing pressure of 50 kPa, while the temperature was adjusted to 18 °C. Before adding culture media, three-dimensional constructs were crosslinked using CaCl2 for ten minutes and BaCl2 for three minutes. After 8 days, 3D structures, after evaluating cell viability, were treated for 72 h with SI306 and SI306-PD2 at selected concentrations and in different conditions: in complete DMEM high-glucose growth medium and DMEM-high glucose growth medium without FBS (w/o). Fiji ImageJ software (version 2.16.0/1.54p, https://imagej.net/software/fiji/downloads, accessed on 20 May 2025) was used to perform measurements of 3D models’ diameters on images acquired using phase contrast microscopy. A hemocytometer was used to set a scale for normalized measures and to convert real optic distance in pixels. At least five different optical fields were acquired, and the diameter was calculated for at least 100 different cell aggregates in each experimental point.

Series [3] deals with Src. In words: Western blot of Src activation (pSrc/Src) in bioprinted U251 cells. It is filed as cell-based, human. To be noted: bioprinted U251, 24 h, FBS-free DMEM; for Active form of Src, pSrc (Tyr416), vs. control: 1 or 10 µM, Western blot. The procedure:
as §1
Cells were subjected to total protein extraction using a ready-to-use cell lysis buffer (Euroclone, Milan, Italy), supplemented by a Protease/Phosphatase Inhibitor Cocktail (Euroclone), diluted 1:100. Cell lysis was further facilitated by three cycles of sonication in an ultrasonic bath (JSP, Los Angeles, CA, USA). […]

Series [4] relates to U251 glioblastoma cell line. In words: 2D cell viability assay (PrestoBlue), U251. The note with it: Homo sapiens, U-251, 72 h, U251 2D culture. It is filed as cell-based. On the procedure:
The human glioblastoma cell line U87 MG (U87) was originally isolated from a patient with a malignant glioma (ECACC). The human glioblastoma cell line U251 MG (U251) was derived from a patient with a malignant glioblastoma (ECACC). DMEM high-glucose growth medium (Euroclone, Milan, Italy), supplemented with 10% FBS (Euroclone), 200 mM L-glutamine (Euroclone), 100 IU/mL penicillin, and 100 µg/mL streptomycin (Euroclone) comprised the culture medium used for cell propagation at a controlled temperature and atmosphere, at 37 °C, […], and 5% CO2. Cell lines underwent regular testing for mycoplasma using the PCR method and identity verification was performed using DNA profiling.
For the treatment of 2D cultures, U87 and U251 cell lines were initially seeded at a density of 2.5 × 10^4 cells/mL in a 24 multiwell with a complete DMEM high-glucose growth medium. The viability test was started 24 h after cell plating and performed for 72 h. According to the experimental plan, the tests were performed in the presence of a complete DMEM high-glucose growth medium or, to avoid the serum-dependent degradation of prodrug, in an FBS-free DMEM high-glucose growth medium that was supplemented with 200 mM L-glutamine, 100 IU/mL penicillin, and 100 µg/mL streptomycin. Cell viability in 2D and 3D models was assessed using the cell-permeable resazurin-based solution PrestoBlue (Thermo Fisher, Waltham, MA, USA). After incubating the cells in a 1:10 ratio with the colorimetric reagent for two hours in the dark, the spectrophotometer readings at 570 and 600 nm were utilized as a relative indicator for cell viability.
Data were imported into Excel or GraphPad Prism software (version 6.01) and elaborated as the mean ± standard deviation (SD) of at least three independent experiments. The calculation of IC50 values with 95% confidence intervals was performed in GraphPad Prism software using a parameter nonlinear fit of the log-dose vs. response elaboration of data. The p value of the log-dose vs. response was calculated with a two-tailed Mann–Whitney test for unpaired data. The statistical significance between two series of measures, including stability and PAMPA (both GI and BBB) experiments, was calculated with the parametric Student t test, considering a significant p value lower than 0.05.

Values joined by “and” are separate entries in the source; they are usually repeats but may differ in a detail not shown here. Equal entries are not always repeated. Bounds are passed on as bounds.

Take `O=C(OCCOCCO)N(c1cccc(Br)c1)c1nc(SCCN2CCOCC2)nc2c1cnn2CC(Cl)c1ccccc1` (stereo not shown) [SI306-PD2, 2-(2-Hydroxyethoxy)ethyl (3-Bromophenyl)(1-(2-chloro-2-phenylethyl)-6-((2-morpholinoethyl)thio)-1H-pyrazolo[3,4-d]pyrimidin-4-yl)carbamate]: the “Stability (% unmodified compound)” value in series [1] (time 0 h) was determined as 100.06 ± 1.13%; in series [1] (time 0.083 h), 93.64 ± 2.06%; in series [1] (time 0.25 h), 92.56 ± 3.74%; in series [1] (time 0.5 h), 89.39 ± 2.87%; in series [1] (time 2 h) it was 79.26 ± 0.34%; in series [1] (time 4 h), 64.90 ± 1.21%. The “Stability (% unmodified compound)” value in series [1] (time 6 h) turned out to be 56.13 ± 2.72%. This compound had a half-life in series [1] of 10.7 h. Moreover, the “Mean diameter of U251 spheroids vs. control” value in series [2] is on record as “significant difference in the mean diameter of the treated U251 spheroids with respect to the control”. Also, the “Spheroid diameter vs. SI306-treated cells” value in series [2] is recorded as “significant reduction in spheroid diameter with respect to SI306-treated cells”. The “pSrc/Src ratio normalized to control, prodrug vs. SI306” value in series [3] (10 µM, densitometric analysis) is given as “higher ability of the prodrug to inhibit the generation of phosphorylated Src than the SI306 compound”. Further, the “Active form of Src, pSrc (Tyr416), vs. control” value in series [3] is on record as “evident reduction in the active form of Src, starting from 1 µM”. The IC50 in series [4] (10% FBS-DMEM) came out at 1.29 µM; in series [4] (FBS-free DMEM (w/o)), 0.09 µM.

Take `ClC(Cn1ncc2c(Nc3cccc(Br)c3)nc(SCCN3CCOCC3)nc21)c1ccccc1` (stereo not shown) [SI306, N-(3-bromophenyl)-1-(2-chloro-2-phenylethyl)-6-((2-morpholinoethyl)thio)-1H-pyrazolo[3,4-d]pyrimidin-4-amine]: the “Stability (% unmodified compound)” value in series [1] (time 0 h) was 100.24 ± 2.48%; in series [1] (time 0.083 h), 99.67 ± 0.21%; in series [1] (time 0.25 h) it was 98.42 ± 1.19%; in series [1] (time 0.5 h) it was 98.49 ± 2.18%; in series [1] (time 1 h), 97.91 ± 1.79%; in series [1] (time 2 h), 93.95 ± 2.42 %. For the same compound, the “Stability (% unmodified compound)” value in series [1] (time 4 h) is 90.92 ± 2.68 %; in series [1] (time 6 h), 90.51 ± 3.24 %; in series [1] (time 24 h), 90.02% and 90.02 ± 2.28 %. In series [1], this compound had a half-life of over 100 h. Besides, in series [2], the “Mean diameter of U251 spheroids vs. control” value is listed as “significant difference in the mean diameter of the treated U251 spheroids with respect to the control”. Further, the “Active form of Src, pSrc (Tyr416), vs. control” value in series [3] is “evident reduction in the active form of Src, starting from 1 µM”. Also, the values for the IC50 in series [4] (10% FBS-DMEM) and in series [4] (FBS-free DMEM (w/o)) were 2.62 µM and 0.23 µM, respectively.

The values above are taken from article PMC12195707, “Evaluation of Antitumoral Activity in a 3D Cell Model of a Src Inhibitor Prodrug for Glioblastoma Treatment” (Pharmaceutics, 2025).
